Experimental findings from patent US20090018134A1, “Compounds - 945” (AstraZeneca AB, priority 2007, published 2009) are described below.

Each structure is given as a SMILES string.

One may read the IC50 as the concentration that inhibits the measured activity by half.

The test concerns the target T1, mTOR (Homo sapiens, UniProt P42345).
T1 construct: FLAG; made in house
Nature of the test: In Vitro mTOR Kinase Assay (Echo), Test (a)(ii). Format: biochemical. As to conditions: table of enzyme assay Test (a)(ii); read-out: Test (a)(ii) IC50. In a few lines: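 Inhibition expressed as IC50 from an AlphaScreen read-out: phospho-T389 p70 S6K antibody plus streptavidin donor/protein A acceptor beads, left overnight in the dark. The kinase reaction ran 2 h at room temperature, then was stopped with EDTA. Enzyme: FLAG-purified mTOR 1362-2549 fragment from stable HEK293 cells.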

T1 sequence (P42345 1362-2549): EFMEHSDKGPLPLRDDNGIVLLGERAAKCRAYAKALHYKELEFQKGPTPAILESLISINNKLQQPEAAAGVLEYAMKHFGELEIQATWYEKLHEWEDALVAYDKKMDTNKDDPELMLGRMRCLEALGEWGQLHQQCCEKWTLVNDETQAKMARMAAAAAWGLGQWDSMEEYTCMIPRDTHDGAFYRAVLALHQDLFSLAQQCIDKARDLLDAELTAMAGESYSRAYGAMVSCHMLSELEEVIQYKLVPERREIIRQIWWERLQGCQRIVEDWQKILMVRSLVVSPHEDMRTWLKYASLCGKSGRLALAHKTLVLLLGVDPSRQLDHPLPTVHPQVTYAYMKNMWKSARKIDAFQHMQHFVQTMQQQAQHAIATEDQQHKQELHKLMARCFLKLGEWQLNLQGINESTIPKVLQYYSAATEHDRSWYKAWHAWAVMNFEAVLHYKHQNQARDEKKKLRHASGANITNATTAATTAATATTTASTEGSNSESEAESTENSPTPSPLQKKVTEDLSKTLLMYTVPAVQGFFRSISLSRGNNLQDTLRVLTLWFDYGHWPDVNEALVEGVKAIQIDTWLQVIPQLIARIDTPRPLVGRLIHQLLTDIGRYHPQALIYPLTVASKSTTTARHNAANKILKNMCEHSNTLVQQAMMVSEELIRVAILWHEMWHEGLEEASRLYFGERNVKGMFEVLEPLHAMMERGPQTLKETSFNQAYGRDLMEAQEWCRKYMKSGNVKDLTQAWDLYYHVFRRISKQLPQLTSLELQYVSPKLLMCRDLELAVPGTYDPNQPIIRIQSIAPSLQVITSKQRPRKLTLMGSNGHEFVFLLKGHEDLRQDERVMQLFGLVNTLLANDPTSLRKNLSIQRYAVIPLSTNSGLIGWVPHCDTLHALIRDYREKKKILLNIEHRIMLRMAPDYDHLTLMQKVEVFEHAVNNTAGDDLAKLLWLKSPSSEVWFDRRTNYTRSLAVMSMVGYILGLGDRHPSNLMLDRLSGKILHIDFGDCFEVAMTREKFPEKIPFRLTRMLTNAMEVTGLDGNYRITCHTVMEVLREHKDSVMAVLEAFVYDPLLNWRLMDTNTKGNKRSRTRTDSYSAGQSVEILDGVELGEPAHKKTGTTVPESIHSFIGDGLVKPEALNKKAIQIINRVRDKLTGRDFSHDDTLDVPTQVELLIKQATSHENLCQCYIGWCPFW

`C[C@H]1COCCN1c1cc(C2(S(=O)(=O)c3ccc(C(N)=O)cc3Cl)CC2)nc(-c2ccc(NC(=O)NCCO)cc2)n1` [Example 85d, 3-chloro-4-[1-[2-[4-(2-hydroxyethylcarbamoylamino)phenyl]-6-[(3S)-3-methylmorpholin-4-yl]pyrimidin-4-yl]cyclopropyl]sulfonylbenzamide]: the IC50 worked out at 3.23 nM.
For `CNC(=O)Nc1ccc(-c2nc(N3CCOC[C@@H]3C)cc(C3(S(=O)(=O)c4ccc(C#N)cc4Cl)CC3)n2)cc1` [Example 85e, 1-[4-[4-[1-(2-chloro-4-cyanophenyl)sulfonylcyclopropyl]-6-[(3S)-3-methylmorpholin-4-yl]pyrimidin-2-yl]phenyl]-3-methylurea] the value was 18.3 nM.
For `CCNC(=O)Nc1ccc(-c2nc(N3CCOC[C@@H]3C)cc(C3(S(=O)(=O)c4ccc(C#N)cc4Cl)CC3)n2)cc1` [Example 85f, 3-[4-[4-[1-(2-chloro-4-cyanophenyl)sulfonylcyclopropyl]-6-[(3S)-3-methylmorpholin-4-yl]pyrimidin-2-yl]phenyl]-1-ethylurea] the value was 20.2 nM; for `C[C@H]1COCCN1c1cc(C2(S(=O)(=O)c3ccc(C#N)cc3Cl)CC2)nc(-c2ccc(NC(=O)NC3CC3)cc2)n1` [Example 85g, 1-[4-[4-[1-(2-chloro-4-cyanophenyl)sulfonylcyclopropyl]-6-[(3S)-3-methylmorpholin-4-yl]pyrimidin-2-yl]phenyl]-3-cyclopropylurea], 25.9 nM; for `C[C@H]1COCCN1c1cc(C2(S(=O)(=O)c3ccc(C#N)cc3Cl)CC2)nc(-c2ccc(NC(=O)NCC(F)F)cc2)n1` [Example 85h, 1-[4-[4-[1-(2-chloro-4-cyanophenyl)sulfonylcyclopropyl]-6-[(3S)-3-methylmorpholin-4-yl]pyrimidin-2-yl]phenyl]-3-(2,2-difluoroethyl)urea], 42.6 nM.
In the case of `C[C@H]1COCCN1c1cc(C2(S(=O)(=O)c3ccc(C#N)cc3Cl)CC2)nc(-c2ccc(NC(=O)NCCF)cc2)n1` [Example 85i, 1-[4-[4-[1-(2-chloro-4-cyanophenyl)sulfonylcyclopropyl]-6-[(3S)-3-methylmorpholin-4-yl]pyrimidin-2-yl]phenyl]-3-(2-fluoroethyl)urea], the IC50 came out at 15.3 nM.
For `C[C@H]1COCCN1c1cc(C2(S(=O)(=O)c3ccc(C#N)cc3Cl)CC2)nc(-c2ccc(NC(=O)NCCO)cc2)n1` [Example 85j, 1-[4-[4-[1-(2-chloro-4-cyanophenyl)sulfonylcyclopropyl]-6-[(3S)-3-methylmorpholin-4-yl]pyrimidin-2-yl]phenyl]-3-(2-hydroxyethyl)urea] the value was 12.4 nM.
Turning to `CNC(=O)Nc1ccc(-c2nc(N3CCOC[C@@H]3C)cc(C3(S(=O)(=O)c4c(F)cccc4F)CC3)n2)cc1` [Example 86, 1-[4-[4-[1-(2,6-Difluorophenyl)sulfonylcyclopropyl]-6-[(3S)-3-methylmorpholin-4-yl]pyrimidin-2-,yl]phenyl]-3-methylurea], the IC50 came to 2.47 nM.
For `CCNC(=O)Nc1ccc(-c2nc(N3CCOC[C@@H]3C)cc(C3(S(=O)(=O)c4c(F)cccc4F)CC3)n2)cc1` [Example 86a, 1-[4-[4-[1-(2,6-difluorophenyl)sulfonylcyclopropyl]-6-[(3S)-3-methylmorpholin-4-yl]pyrimidin-2-yl]phenyl]-3-ethylurea] the value was 5.22 nM.
For `C[C@H]1COCCN1c1cc(C2(S(=O)(=O)c3c(F)cccc3F)CC2)nc(-c2ccc(NC(=O)NC3CC3)cc2)n1` [Example 86b, 3-cyclopropyl-1-[4-[4-[1-(2,6-difluorophenyl)sulfonylcyclopropyl]-6-[(3S)-3-methylmorpholin-4-yl]pyrimidin-2-yl]phenyl]urea] the value was 7.25 nM; for `C[C@H]1COCCN1c1cc(C2(S(=O)(=O)c3c(F)cccc3F)CC2)nc(-c2ccc(NC(=O)NCCO)cc2)n1` [Example 86c, 1-[4-[4-[1-(2,6-difluorophenyl)sulfonylcyclopropyl]-6-[(3S)-3-methylmorpholin-4-yl]pyrimidin-2-yl]phenyl]-3-(2-hydroxyethyl)urea], 2.47 nM.
For `C[C@H]1COCCN1c1cc(C2(S(=O)(=O)c3c(F)cccc3F)CC2)nc(-c2ccc(NC(=O)NCCF)cc2)n1` [Example 86d, 1-[4-[4-[1-(2,6-difluorophenyl)sulfonylcyclopropyl]-6-[(3S)-3-methylmorpholin-4-yl]pyrimidin-2-yl]phenyl]-3-(2-fluoroethyl)urea] the value was 3.82 nM.
For the compound `C[C@H]1COCCN1c1cc(C2(S(=O)(=O)c3c(F)cccc3F)CC2)nc(-c2ccc(NC(=O)NCC(F)F)cc2)n1` [Example 86e, 3-(2,2-difluoroethyl)-1-[4-[4-[1-(2,6-difluorophenyl)sulfonylcyclopropyl]-6-[(3S)-3-methylmorpholin-4-yl]pyrimidin-2-yl]phenyl]urea], the IC50 was 2.23 nM.
Take `C[C@H]1COCCN1c1cc(C2(S(=O)(=O)c3c(F)cccc3F)CC2)nc(-c2ccc(NC(=O)Nc3cnn(C)c3)cc2)n1` [Example 86f, 1-[4-[4-[1-(2,6-difluorophenyl)sulfonylcyclopropyl]-6-[(3S)-3-methylmorpholin-4-yl]pyrimidin-2-yl]phenyl]-3-(1-methylpyrazol-4-yl)urea]: the IC50 came to 3.45 nM.
For `CCS(=O)(=O)C1(c2cc(N3CCOC[C@@H]3C)nc(-c3ccc(NC(=O)NCCO)cc3)n2)CCC1` [Example 87, 1-[4-[4-(1-Ethylsulfonylcyclobutyl)-6-[(3S)-3-methylmorpholin-4-yl]pyrimidin-2-yl]phenyl]-3-(2-hydroxyethyl)urea] the value was 4.87 nM; for `CCS(=O)(=O)C1(c2cc(N3CCOC[C@@H]3C)nc(-c3ccc(NC(=O)NCc4ncc[nH]4)cc3)n2)CCC1` [Example 87a, 1-[4-[4-(1-ethylsulfonylcyclobutyl)-6-[(3S)-3-methylmorpholin-4-yl]pyrimidin-2-yl]phenyl]-3-(1H-imidazol-2-ylmethyl)urea], 88.7 nM.
For `CCS(=O)(=O)C1(c2cc(N3CCOC[C@@H]3C)nc(-c3ccc(NC(=O)NCCCO)cc3)n2)CCC1` [Example 87b, 1-[4-[4-(1-ethylsulfonylcyclobutyl)-6-[(3S)-3-methylmorpholin-4-yl]pyrimidin-2-yl]phenyl]-3-(3-hydroxypropyl)urea] the value was 17.7 nM; for `CCS(=O)(=O)C1(c2cc(N3CCOC[C@@H]3C)nc(-c3ccc(NC(=O)NC)cc3)n2)CCC1` [Example 87c, 1-[4-[4-(1-ethylsulfonylcyclobutyl)-6-[(3S)-3-methylmorpholin-4-yl]pyrimidin-2-yl]phenyl]-3-methylurea], 7.75 nM.
With `CCS(=O)(=O)C1(c2cc(N3CCOC[C@@H]3C)nc(-c3ccc(NC(=O)NC(C)(C)CO)cc3)n2)CCC1` [Example 87d, 1-[4-[4-(1-ethylsulfonylcyclobutyl)-6-[(3S)-3-methylmorpholin-4-yl]pyrimidin-2-yl]phenyl]-3-(1-hydroxy-2-methylpropan-2-yl)urea] the figure was 17.7 nM; with `CCS(=O)(=O)C1(c2cc(N3CCOC[C@@H]3C)nc(-c3ccc(NC(=O)N[C@@H](C)CO)cc3)n2)CCC1` [Example 87e, 1-[4-[4-(1-ethylsulfonylcyclobutyl)-6-[(3S)-3-methylmorpholin-4-yl]pyrimidin-2-yl]phenyl]-3-[(2S)-1-hydroxypropan-2-yl]urea], 10.3 nM.
